In patent US12187723B2 (BRISTOL-MYERS SQUIBB COMPANY, priority 2019, dated 2025) one finds IC50 data, which are given here for 18 compounds.

Test [1] concerns the target T1, human TLR9 (Homo sapiens, UniProt Q9NR96).
T1 construct: host or cells: HEK-Blue cells
T1 sequence (Q9NR96 26-1032): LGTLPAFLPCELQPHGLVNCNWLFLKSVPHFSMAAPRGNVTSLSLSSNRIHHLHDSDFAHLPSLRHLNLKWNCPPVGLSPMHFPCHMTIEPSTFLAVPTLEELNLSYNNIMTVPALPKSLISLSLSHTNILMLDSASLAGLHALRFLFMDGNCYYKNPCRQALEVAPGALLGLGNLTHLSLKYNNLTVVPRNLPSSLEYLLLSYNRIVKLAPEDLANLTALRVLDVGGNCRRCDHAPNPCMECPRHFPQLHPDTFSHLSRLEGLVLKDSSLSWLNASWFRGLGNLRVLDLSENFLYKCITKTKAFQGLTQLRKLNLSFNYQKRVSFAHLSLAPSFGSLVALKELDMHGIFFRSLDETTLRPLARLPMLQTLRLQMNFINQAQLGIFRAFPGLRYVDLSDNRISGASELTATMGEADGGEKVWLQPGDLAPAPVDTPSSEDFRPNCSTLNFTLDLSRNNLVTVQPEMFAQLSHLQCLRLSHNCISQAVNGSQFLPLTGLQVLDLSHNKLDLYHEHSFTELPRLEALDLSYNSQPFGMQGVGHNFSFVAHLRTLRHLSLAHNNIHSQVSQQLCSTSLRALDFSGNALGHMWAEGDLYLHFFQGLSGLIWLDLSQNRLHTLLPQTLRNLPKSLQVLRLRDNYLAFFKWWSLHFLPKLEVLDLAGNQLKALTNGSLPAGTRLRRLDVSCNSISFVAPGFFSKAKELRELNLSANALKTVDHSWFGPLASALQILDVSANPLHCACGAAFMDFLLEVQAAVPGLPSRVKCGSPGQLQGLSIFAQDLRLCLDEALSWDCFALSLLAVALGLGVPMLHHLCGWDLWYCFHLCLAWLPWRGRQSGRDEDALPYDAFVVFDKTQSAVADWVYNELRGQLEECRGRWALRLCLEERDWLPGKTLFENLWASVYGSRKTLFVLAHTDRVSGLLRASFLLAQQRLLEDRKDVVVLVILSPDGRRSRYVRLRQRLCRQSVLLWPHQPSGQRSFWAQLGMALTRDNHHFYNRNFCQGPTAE
As to the kind of experiment: TLR9 inhibition reporter assay (HEK-Blue SEAP). Type of test: cell-based. To be noted: HEK-Blue cells overexpressing human TLR9, ODN2006 5 nM, 22 hour incubation. In a few lines:
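Screening used HEK-Blue cells overexpressing one human TLR (7, 8 or 9) and an IFN-β minimal promoter–NF-κB/AP-1 SEAP construct. Stimulation lasted 22 h at 37 °C with receptor-specific agonist: gardiquimod, R848 or ODN2006 at 7.5 μM, 15.9 μM and 5 nM.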

Test [2] has as its target T2, human TLR7 (Homo sapiens, UniProt Q9NYK1).
T2 construct: host or cells: HEK-Blue cells
T2 sequence (Q9NYK1 27-1049): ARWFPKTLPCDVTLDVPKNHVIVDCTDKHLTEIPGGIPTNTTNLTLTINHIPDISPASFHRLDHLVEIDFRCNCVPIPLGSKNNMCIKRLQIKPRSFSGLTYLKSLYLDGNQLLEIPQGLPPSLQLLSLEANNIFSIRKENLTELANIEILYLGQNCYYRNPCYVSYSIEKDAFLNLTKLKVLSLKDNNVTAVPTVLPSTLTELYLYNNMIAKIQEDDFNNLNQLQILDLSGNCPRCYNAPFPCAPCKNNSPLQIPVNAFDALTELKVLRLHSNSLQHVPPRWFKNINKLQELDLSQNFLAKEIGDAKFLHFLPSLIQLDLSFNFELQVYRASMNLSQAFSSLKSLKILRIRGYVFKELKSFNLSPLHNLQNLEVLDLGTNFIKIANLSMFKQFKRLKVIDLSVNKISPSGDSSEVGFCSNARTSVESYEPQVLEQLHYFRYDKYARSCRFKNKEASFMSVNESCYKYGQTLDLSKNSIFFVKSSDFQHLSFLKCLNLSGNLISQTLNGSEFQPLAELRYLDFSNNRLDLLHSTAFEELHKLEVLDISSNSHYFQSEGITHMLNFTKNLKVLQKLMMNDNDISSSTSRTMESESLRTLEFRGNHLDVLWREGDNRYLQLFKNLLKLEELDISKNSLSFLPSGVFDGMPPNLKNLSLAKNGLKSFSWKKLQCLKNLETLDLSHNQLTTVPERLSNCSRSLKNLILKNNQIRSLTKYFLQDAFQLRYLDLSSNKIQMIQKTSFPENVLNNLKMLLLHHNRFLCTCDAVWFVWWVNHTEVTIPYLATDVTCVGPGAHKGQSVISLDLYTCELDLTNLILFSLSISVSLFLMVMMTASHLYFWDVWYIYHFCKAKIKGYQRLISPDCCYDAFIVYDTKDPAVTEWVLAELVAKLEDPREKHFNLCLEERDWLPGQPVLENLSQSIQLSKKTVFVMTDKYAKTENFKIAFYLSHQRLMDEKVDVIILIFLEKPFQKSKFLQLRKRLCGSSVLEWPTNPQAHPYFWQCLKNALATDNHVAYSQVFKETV
As to the kind of experiment: TLR7 inhibition reporter assay (HEK-Blue SEAP). In kind it is cell-based. To be noted: HEK-Blue cells overexpressing human TLR7, gardiquimod 7.5 μM, 22 hour incubation. In a few lines:
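Dose-response testing from 0.05 nM to 50 μM final was done on reporter cells for 22 hours at 37° C. Secreted SEAP was then detected, and inhibition was calculated as percent reduction of the agonist-plus-DMSO signal compared with wells given a known inhibitor.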
(In a reporter assay the amount or activity of a reporter protein is the signal.)

Take `COc1cc(-c2cc3[nH]c(=O)n(C4CCC(N5CCC(F)(F)C5)CC4)c3cc2C(C)C)cn2ncnc12` (single isomer, unassigned) [Example 294, 1-(4-(3,3-difluoropyrrolidin-1-yl)cyclohexyl)-6-isopropyl-5-(8-methoxy-[1,2,4]triazolo[1,5-a]pyridin-6-yl)-1,3-dihydro-2H-benzo[d]imidazol-2-one]: the concentration for half-maximal inhibition (IC50) (commonly the concentration at which inhibition is half-maximal) in test [1] amounted to 35200 nM; in test [2], 1.2 nM.

For `COc1cc(-c2cc3[nH]c(=O)n(C4CCC(N5CCSCC5)CC4)c3cc2C(C)C)cn2ncnc12` (stereo not drawn) [Example 251, 6-isopropyl-5-(8-methoxy-[1,2,4]triazolo[1,5-a]pyridin-6-yl)-1-(4-thiomorpholinocyclohexyl)-1,3-dihydro-2H-benzo[d]imidazol-2-one], the IC50 in test [1] came to 11900 nM; in test [2], 3.54 nM.

Consider `Cc1cc2c(cc1-c1cc(C)c3ncnn3c1)[nH]c(=O)n2[C@H]1CC[C@@H](NC2CCOCC2)CC1` [Example 30, 6-methyl-5-(8-methyl-[1,2,4]triazolo[1,5-a]pyridin-6-yl)-1-((1s,4s)-4-((tetrahydro-2H-pyran-4-yl)amino)cyclohexyl)-1,3-dihydro-2H-benzo[d]imidazol-2-one], for which the IC50 in test [1] came to 4490 nM; in test [2], 8.23 nM.

In the case of `COc1c(C)c(-c2cc3[nH]c(=O)n(C4CCC(NCC5(S(C)(=O)=O)CC5)CC4)c3cc2C(C)C)cn2ncnc12` (single isomer, unassigned) [Example 260], the values for the IC50 in test [1] and in test [2] were 6360 nM and 41.5 nM, respectively.

Consider `COc1c(C)c(-c2cc3[nH]c(=O)n(C4CCC(N5CC6(COC6)C5)CC4)c3cc2C(C)C)cn2ncnc12` (single isomer, unassigned) [Example 269, 1-(4-(2-oxa-6-azaspiro[3.3]heptan-6-yl)cyclohexyl)-6-isopropyl-5-(8-methoxy-7-methyl-[1,2,4]triazolo[1,5-a]pyridin-6-yl)-1,3-dihydro-2H-benzo[d]imidazol-2-one], for which the IC50 in test [1] came to 25600 nM; in test [2], 5.73 nM.

Regarding `Cc1cc2c(cc1-c1cc(C)c3ncnn3c1)[nH]c(=O)n2[C@H]1CC[C@H](NC(C)C)CC1` [Example 25, 1-((1r,4s)-4-(isopropylamino)cyclohexyl)-6-methyl-5-(8-methyl-[1,2,4]triazolo[1,5-a]pyridin-6-yl)-1,3-dihydro-2H-benzo[d]imidazol-2-one], the figures for the IC50 in test [1] and in test [2] were 4350 nM and 20.2 nM, respectively.

`COc1cc(-c2cc3[nH]c(=O)n(C4CCC(N5CC(F)(F)C5)CC4)c3cc2C(C)C)cn2ncnc12` (single isomer, unassigned) [Example 296]: the half-inhibitory concentration (IC50) in test [1] is greater than 50000 nM; in test [2], 31.4 nM.

With `Cc1cc2c(cc1-c1cc(C)c3ncnn3c1)[nH]c(=O)n2[C@H]1CC[C@H](N)CC1` [1 EF, 1-((1r,4r)-4-aminocyclohexyl)-6-methyl-5-(8-methyl-[1,2,4]triazolo[1,5-a]pyridin-6-yl)-1,3-dihydro-2H-benzo[d]imidazol-2-one], the 50% inhibitory concentration (IC50) in test [1] is 2310 nM; in test [2], 40.7 nM.

Turning to `COc1cc(-c2cc3[nH]c(=O)n(C4CCC(N5CCC(OC)C5)CC4)c3cc2C(C)C)cn2ncnc12` (stereo not drawn) [Example 285, 6-isopropyl-5-(8-methoxy-[1,2,4]triazolo[1,5-a]pyridin-6-yl)-1-(4-(3-methoxypyrrolidin-1-yl)cyclohexyl)-1,3-dihydro-2H-benzo[d]imidazol-2-one], the IC50 in test [1] came out at 8310 nM; in test [2], 0.66 nM.

For `COc1cc(-c2cc3[nH]c(=O)n(C4CCC(N5C6CCC5COC6)CC4)c3cc2C(C)C)cn2ncnc12` (single isomer, unassigned) [Example 253, 1-(4-(3-oxa-8-azabicyclo[3.2.1]octan-8-yl)cyclohexyl)-6-isopropyl-5-(8-methoxy-[1,2,4]triazolo[1,5-a]pyridin-6-yl)-1,3-dihydro-2H-benzo[d]imidazol-2-one], the IC50 in test [1] was 11100 nM; in test [2] it was 4.75 nM.

On to `Cc1c(-c2cc3[nH]c(=O)n(C4CCC(N5CCCC(F)C5)CC4)c3cc2C(C)C)cn2ncnc2c1C` (stereo not drawn) [Example 274, 5-(7,8-dimethyl-[1,2,4]triazolo[1,5-a]pyridin-6-yl)-1-(4-(3-fluoropiperidin-1-yl)cyclohexyl)-6-isopropyl-1,3-dihydro-2H-benzo[d]imidazol-2-one], for which the IC50 in test [1] turned out to be 16800 nM; in test [2], 6.78 nM.

For `Cc1cc2c(cc1-c1cc(C)c3ncnn3c1)[nH]c(=O)n2[C@H]1CC[C@@H](N)CC1` [1 EE], the figures for the IC50 in test [1] and in test [2] were 2160 nM and 19.3 nM, respectively.

For the compound `Cc1cc2c(cc1-c1cc(C)c3ncnn3c1)[nH]c(=O)n2C1CCCNC1` (stereo not drawn) [1 EC, 6-methyl-5-(8-methyl-[1,2,4]triazolo[1,5-a]pyridin-6-yl)-1-(piperidin-3-yl)-1,3-dihydro-2H-benzo[d]imidazol-2-one], the figures for the IC50 in test [1] and in test [2] were 381 nM and 105 nM, respectively.

Consider `COc1cc(-c2cc3[nH]c(=O)n([C@@H]4CCCNC4)c3cc2C)cn2ncnc12` [1 EH, (R)-5-(8-methoxy-[1,2,4]triazolo[1,5-a]pyridin-6-yl)-6-methyl-1-(piperidin-3-yl)-1,3-dihydro-2H-benzo[d]imidazol-2-one], for which the IC50 in test [1] was 809 nM; in test [2], 43 nM.

On to `Cc1c(-c2cc3[nH]c(=O)n([C@@H]4CCCNC4)c3cc2C(C)C)cn2ncnc2c1C` [119 FC, (R)-5-(7,8-dimethyl-[1,2,4]triazolo[1,5-a]pyridin-6-yl)-6-isopropyl-1-(piperidin-3-yl)-1,3-dihydro-2H-benzo[d]imidazol-2-one], for which the values for the IC50 in test [1] and in test [2] were 11700 nM and 3.26 nM, respectively.

Take `Cc1cc(-c2ccc3c(c2)[nH]c(=O)n3C2CCNCC2)cn2ncnc12` [1 EB, 5-(8-methyl-[1,2,4]triazolo[1,5-a]pyridin-6-yl)-1-(piperidin-4-yl)-1,3-dihydro-2H-benzo[d]imidazol-2-one]: the IC50 in test [1] is 347 nM; in test [2], 1160 nM.

With `COc1c(C)c(-c2cc3[nH]c(=O)n(C4CCC(NCC5(S(C)(=O)=O)CC5)CC4)c3cc2C(C)C)cn2ncnc12` (single isomer, unassigned) [Example 259], the IC50 in test [1] was 40500 nM; in test [2], 10.4 nM.

On to `COc1cc(-c2cc3[nH]c(=O)n(C4CCC(N5C[C@@H](F)[C@@H](F)C5)CC4)c3cc2C(C)C)cn2ncnc12` (single isomer, unassigned) [Example 293], for which the half-maximal inhibitory concentration (IC50) in test [1] was found to be 23400 nM; in test [2] it was 10.9 nM.
